Test results reported in patent US20250282736A1, “SMALL MOLECULE MODULATORS OF HUMAN PREGNANE X RECEPTOR” (ST. JUDE CHILDREN'S RESEARCH HOSPITAL, priority 2022, published 2025).
Like-named read-outs stand apart in the source and are kept apart here.

Assays:
hPXR [1] = target: T1, hPXR (Homo sapiens (Human), UniProt O75469); test: hPXR binding assay; details: for inhibition at 10 µM: read-out: Binding (% inhibition at 10 μM)
hPXR [2] = target: T1, hPXR; test: cell-based hPXR agonistic assay; details: for Agonist (% activation at 10 μM): rifampicin at 10 μM as 100% activation, DMSO (0.3%) as 0%
hPXR [3] = target: T1, hPXR; test: cell-based hPXR antagonistic assay; details: for inhibition at 10 µM: read-out: Antagonist (% inhibition at 10 μM)
hPXR [4] = target: T1, hPXR; test: cell-based hPXR inverse agonistic assay
[5] = read-out: Binding (IC50/μM), hPXR binding assay

T1 sequence (O75469 whole entry): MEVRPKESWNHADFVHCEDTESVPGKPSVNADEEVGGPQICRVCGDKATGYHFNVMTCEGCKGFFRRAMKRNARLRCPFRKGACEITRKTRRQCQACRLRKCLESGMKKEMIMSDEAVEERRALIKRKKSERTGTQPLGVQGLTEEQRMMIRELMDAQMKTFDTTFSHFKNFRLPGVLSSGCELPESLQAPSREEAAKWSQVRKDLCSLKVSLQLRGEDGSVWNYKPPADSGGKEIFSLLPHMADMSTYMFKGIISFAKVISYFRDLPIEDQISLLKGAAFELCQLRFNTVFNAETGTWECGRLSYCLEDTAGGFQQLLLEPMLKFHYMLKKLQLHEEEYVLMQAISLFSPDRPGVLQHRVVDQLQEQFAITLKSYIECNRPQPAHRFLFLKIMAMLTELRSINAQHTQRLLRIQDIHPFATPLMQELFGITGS

| Compound | IC50 (hPXR [1]) [µM] | EC50 (hPXR [2]) [µM] | IC50 (hPXR [3]) [µM] | IC50 (hPXR [4]) [µM] | IC50 (hPXR [1]; [5]) [µM] | Antagonist (% inhibition at 10 μM) (hPXR [3]; at 10 μM, SPA70 at 10 μM with rifampicin (5 μM) as 100% inhibition, rifampicin alone (5 μM) as 0%) | IC50 (hPXR [3]; read-out: Antagonist (IC50/μM), cell-based hPXR antagonistic assay with rifampicin (5 μM)) [µM] | IC50 (hPXR [4]; read-out: Inverse agonist (IC50/μM), cell-based hPXR inverse agonistic assay) [µM] | inhibition at 10 µM (hPXR [1]) [%] | Agonist (% activation at 10 μM) (hPXR [2]) | EC50 (hPXR [2]; read-out: Agonist (EC50/μM), cell-based hPXR agonistic assay) [µM] | inhibition at 10 µM (hPXR [3]) [%] | inhibition at 10 µM (hPXR [4]; read-out: Inverse agonist (% inhibition at 10 μM)) [%] |
| --- | --- | --- | --- | --- | --- | --- | --- | --- | --- | --- | --- | --- | --- |
| COc1ccc(OC)c(-n2nnc(C(=O)Nc3cc(OCC(=O)O)cc(C(C)(C)C)c3)c2C)c1 [D32] | > 30 | > 30 | > 30 | > 30 | – | – | – | – | – | – | – | – | – |
| COc1ccc(OC)c(-n2nnc(C(=O)Nc3cc(C(C)(C)C)ccc3NC(C)=O)c2C)c1 [B38] | – | – | > 30 | > 30 | 3.22 ± 2.29 | – | – | – | 60 | (60 ± 13)% | 0.99 ± 0.22 | – | – |
| COc1ccc(OC)c(-n2nnc(C(=O)Nc3ccc4c(c3)Nc3ccccc3CC4)c2C)c1 [A23] | > 30 | > 30 | 13.4 ± 0.12 | > 30 | – | – | – | – | – | – | – | 23 | – |
| COc1ccc(OC)c(-n2nnc(N(S(=O)(=O)c3ccc(C(C)(C)C)cc3)S(=O)(=O)c3ccc(C(C)(C)C)cc3)c2C)c1 [K8] | – | 0.19 | 1.45 ± 0.2 | > 30 | 0.14 | – | – | – | 70 | (21 ± 3)% | – | 49 | – |

Next, values leading:

| IC50 (hPXR [1]) [µM] | EC50 (hPXR [2]) [µM] | IC50 (hPXR [3]) [µM] | IC50 (hPXR [4]) [µM] | IC50 (hPXR [1]; [5]) [µM] | Antagonist (% inhibition at 10 μM) (hPXR [3]; at 10 μM, SPA70 at 10 μM with rifampicin (5 μM) as 100% inhibition, rifampicin alone (5 μM) as 0%) | IC50 (hPXR [3]; read-out: Antagonist (IC50/μM), cell-based hPXR antagonistic assay with rifampicin (5 μM)) [µM] | IC50 (hPXR [4]; read-out: Inverse agonist (IC50/μM), cell-based hPXR inverse agonistic assay) [µM] | inhibition at 10 µM (hPXR [1]) [%] | Agonist (% activation at 10 μM) (hPXR [2]) | EC50 (hPXR [2]; read-out: Agonist (EC50/μM), cell-based hPXR agonistic assay) [µM] | inhibition at 10 µM (hPXR [3]) [%] | inhibition at 10 µM (hPXR [4]; read-out: Inverse agonist (% inhibition at 10 μM)) [%] | Compound |
| --- | --- | --- | --- | --- | --- | --- | --- | --- | --- | --- | --- | --- | --- |
| > 30 | > 30 | > 30 | > 30 | – | – | – | – | – | – | – | – | – | COc1ccc(OC)c(-n2nnc(C(=O)Nc3cccc(N4CCN(C)CC4)c3)c2C)c1 [A15] |
| – | > 30 | – | – | 0.5 ± 0.12 | (82 ± 17)% | 0.62 ± 0.28 | 0.15 | – | – | – | – | – | CCCCN(CCCC)c1cc(NC(=O)c2nnn(-c3cc(OC)ccc3OC)c2C)cc(C(C)(C)C)c1 [D5, N-(3-(tert-butyl)-5-(dibutylamino)phenyl)-1-(2,5-dimethoxyphenyl)-5-methyl-1H-1,2,3-triazole-4-carboxamide] |
| > 30 | > 30 | 19.7 ± 7.63 | > 30 | – | – | – | – | – | – | – | 84 | – | COc1ccc(OC)c(-n2nnc(C(=O)Nc3cc(OCCOCCOCCOCCN)cc(C(C)(C)C)c3)c2C)c1 [D35] |
| > 30 | > 30 | > 30 | > 30 | – | – | – | – | – | – | – | – | – | CCCCOc1ccc(C(C)(C)C)cc1NC(=O)c1nnn(-c2ccc(OC)cc2)c1C [E9] |
| – | 0.01 | 0.031 | > 30 | 0.0062 ± 0.0001 | – | – | – | 89 | (8 ± 2)% | – | 84 | – | CCCC(CC)Oc1ccc(C(C)(C)C)cc1NC(=O)c1nnn(-c2ccccc2OC)c1C (stereo not shown) [I1] |
| – | > 30 | 2.69 ± 0.93 | 1.07 ± 0.43 | 0.57 | – | – | – | 58 | – | – | 46 | 53 | COc1ccc(OC)c(-n2nnc(C(=O)Nc3cc(OCCCCCCCCCl)cc(C(C)(C)C)c3)c2C)c1 [D24] |
| – | 0.013 ± 0.01 | 0.12 ± 0.01 | > 30 | 0.0078 ± 0.0001 | – | – | – | 91 | (69 ± 4)% | – | 32 | – | CCC[C@H](CC)Oc1ccc(C(C)(C)C)cc1NC(=O)c1nnn(-c2cc(OC)c(OC)cc2OC)c1C [M9, (S)—N-(5-(Tert-Butyl)-2-(Hexan-3-yloxy)Phenyl)-5-Methyl-1-(2,4,5-Trimethoxyphenyl)-1H-1,2,3-Triazole-4-Carboxamide] |
